Experiments:
NCI-H2122 xenograft = experiment: NSCLC H2122 xenograft model, tumor volume; format: in vivo, BALB/c nude mice; conditions: 60 mg/kg oral once daily vs AMG510 at 60 mg/kg; FIG. 3
Description: (§1) All the procedures related to animal handling, care and the treatment in this study were performed according to the guidelines approved by the Institutional Animal Care and Use Committee (IACUC) of SIPPER B&K following the guidance of the Association for Assessment and Accreditation of Laboratory Animal Care (AAALAC). At the time of routine monitoring, the animals were checked for any effects of tumor growth on normal behavior such as mobility, food and water consumption (by looking only), body weight gain/loss (body weights were measured twice weekly), eye/hair matting and any other abnormal effect. Death and observed clinical signs were recorded on the basis of the numbers of animals within each subset.
The NCI-H358, SW837, NCI-H2122 tumor cells were purchased from the American Type Culture Collection (ATCC). Cells were maintained in vitro as monolayer cultured in RPMI-1640 or DMEM medium supplemented with 10% fetal bovine serum, 50 IU/ml penicillin/streptomycin (GIBCO) at 37° C. in an atmosphere of 5% CO2 in air. […] The cells growing in an exponential growth phase were harvested and counted for tumor inoculation. […]
(§2) Tumor volume was calculated by measuring two perpendicular diameters using the following formula: (L×W 2)/2 in which L and W refer to the length and width tumor diameter, respectively. Results are expressed as mean and standard deviation of the mean.

[1] = test system: Lung cancer cell line NCI-H358 containing KRas G12C mutation; experiment: Assay for cell proliferation (Cell-titer Glo, 5 days); format: cell-based, human
Outline: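 NCI-H358 (KRas G12C) cells, 2000 per well, attached overnight at 37 °C, 5% CO2, then treated with compound for 5 days at 0.5% DMSO final. Proliferation measured by CellTiter-Glo luminescence after 10 min at RT.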

SW837 xenograft = experiment: Colorectal adenocarcinoma SW837 xenograft model, tumor volume; format: in vivo, BALB/c nude mice; conditions: 30 mg/kg oral once daily vs AMG510 at 60 mg/kg; FIG. 1
Description: as §1
The NCI-H358, SW837, NCI-H2122 tumor cells were purchased from the American Type Culture Collection (ATCC). Cells were maintained in vitro as monolayer cultured in RPMI-1640 or DMEM medium supplemented with 10% fetal bovine serum, 50 IU/ml penicillin/streptomycin (GIBCO) at 37° C. in an atmosphere of 5% CO2 in air. The tumor cells were routinely sub cultured twice weekly by trypsin-EDTA treatment. The cells growing in an exponential growth phase were harvested and counted for tumor inoculation.
For tumor bearing models, female 6- to 8-week-old athymic BALB/c nude mice were used for human cancer cell lines. Each mouse was inoculated subcutaneously at the right flank with tumor cells (10×10^6) in 0.1 ml of PBS. The treatments were started when the average tumor size reached approximately 200-250 mm^3. Carboplatin, Cisplatin was injected twice a week by i.p. Vehicles and other test articles were given orally as a suspension by gavage once daily during the study or treatment period.
as §2

IC50 ([1]; Homo sapiens, NCI-H358, 120 h, NCI-H358, 5 days, Cell-titer Glo, read-out: IC50 (nM), Inhibition of NCI-H358 Cell Proliferation): 0.6 nM
SMILES: C=CC(=O)N1C[C@H](C)N(c2nc(=O)n(-c3c(C4CC4)ncnc3C3CC3)c3nc(-c4c(N)cccc4F)c(Cl)cc23)C[C@H]1C [Compound 126]
reducing tumor volume compared with AMG510 (NCI-H2122 xenograft): more effective than AMG510
potency in inhibiting KRAS G12C compared with corresponding isopropyl analogs [1]: better potency
fold more potent: 2-amino-6-fluoro-phenyl compound vs. corresponding 2-fluoro-phenyl compound at R8 ([1]; NCI-H358 IC50 comparison): about 15 ×
reducing tumor volume compared with AMG510 (SW837 xenograft): more effective than AMG510

Source: patent publication US12110289B2, “Heterocyclic compounds, preparation methods and uses thereof” (InventisBio Co., Ltd., priority 2020, dated 2024)
